The values that follow come from ChEMBL document CHEMBL1143522, “Antimalarial benzo[c]phenanthridines” (Bioorg Med Chem Lett, 2005).

For orientation: IC50 means the concentration that inhibits the measured activity by half. Higher therefore signals weaker potency.

Data set [1] concerns Plasmodium falciparum. Put plainly: In vitro inhibitory concentration against chloroquine-resistant Plasmodium falciparum V1/S. Type of data set: functional, organism-based.
Data set [2] is described as follows: In vitro toxicity against B82 fibroblast cells. Format: cell-based. The following applies: mouse, read-out: LD50 (the source's name).
In data set [3] the test system is Plasmodium falciparum. Nature of the data set: […] against Plasmodium falciparum strains K39 and V1/S. Format: functional.
The test system of data set [4] is Plasmodium falciparum. Nature of the data set: In vitro inhibitory concentration against chloroquine-sensitive Plasmodium falciparum K39. Type of data set: functional, organism-based.
For data set [5], the system named is Plasmodium falciparum. Nature of the data set: In vitro inhibition against chloroquine-resistant Plasmodium falciparum V1/S; Range 0.1-0.4 uM. Format: functional, organism-based.
Data set [6] deals with Plasmodium falciparum. Put plainly: In vitro inhibition against chloroquine-sensitive Plasmodium falciparum K39; Range 0.1-0.4 uM. Type of data set: functional, organism-based.

In the case of `CCOc1cc2c3cc(OC)c(OC)cc3c[n+](CC)c2c2cc(OC)c(OC)cc12.[I-]`, the results for the IC50 in the data set with Plasmodium falciparum [1] and in the data set on Plasmodium falciparum [4] were 50 nM and 40 nM, respectively. Also, in data set [2], the CC50 amounted to 3.2 µg/mL. Further, in the data set with Plasmodium falciparum [3], the Ratio came to 1.4.

As to `CC[n+]1cc2cc(OC)c(OC)cc2c2ccc3cc(OC)c(OC)cc3c21.[I-]`, the IC50 is 120 nM in the data set with Plasmodium falciparum [1] and 90 nM in the data set with Plasmodium falciparum [4]. Besides, the Ratio in the data set with Plasmodium falciparum [3] is 1.3.

Consider `COc1cc2ccc3c4cc(OC)c(SC)cc4c[n+](C)c3c2cc1OC.CS(=O)(=O)[O-]`, for which the IC50 in the data set on Plasmodium falciparum [1] amounted to 900 nM; with Plasmodium falciparum [4], 190 nM. For the same molecule, in the data set on Plasmodium falciparum [3], the Ratio is 4.7.

For the molecule `COc1cc2c[n+](C)c3c4cc(OC)c(OC)cc4c4occc4c3c2cc1OC.CS(=O)(=O)[O-]`, the IC50 with Plasmodium falciparum [1] came to 110 nM; in the data set on Plasmodium falciparum [4], 9 nM. The Ratio with Plasmodium falciparum [3] is listed as 11.3.

For `COc1cc2c[n+](C)c3c4cc(OC)c(OC)cc4ccc3c2cc1OC.CS(=O)(=O)[O-]`, the IC50 with Plasmodium falciparum [1] worked out at 300 nM; in the data set on Plasmodium falciparum [4], 70 nM. Moreover, the Ratio in the data set with Plasmodium falciparum [3] worked out at 4.2.

Turning to `CCOc1cc2c3cc(OC)c(OC)cc3c[n+](C)c2c2cc(OC)c(O)cc12.CS(=O)(=O)[O-]`, the IC50 in the data set with Plasmodium falciparum [1] and with Plasmodium falciparum [4] was 120 nM throughout. The Ratio in the data set on Plasmodium falciparum [3] came out at 1.

Regarding `COc1cc2c(ccc3c4cc(OC)c(OC)cc4c[n+](C)c23)cc1O.CS(=O)(=O)[O-]`, the IC50 with Plasmodium falciparum [1] was found to be 1800 nM; in the data set on Plasmodium falciparum [4], 2300 nM. Also, in the data set with Plasmodium falciparum [3], the Ratio was 0.8.

Consider `COc1cc2c[n+](C)c3c4cc(OC)c(OC)cc4c(OCC4OCC(Br)([N+](=O)[O-])CO4)cc3c2cc1OC.CS(=O)(=O)[O-]` (stereo not drawn), for which the IC50 in the data set on Plasmodium falciparum [1] was determined as 1840 nM; in the data set on Plasmodium falciparum [4] it was 1000 nM. Also, the Ratio in the data set with Plasmodium falciparum [3] is 1.9.

In the case of `CCOc1cc2c3cc(OC)c(OC)cc3c[n+](C)c2c2cc(OC)c(OC)cc12.CS(=O)(=O)[O-]`, the IC50 in the data set on Plasmodium falciparum [1] and in the data set on Plasmodium falciparum [4] was 260 nM in each case. The Ratio in the data set on Plasmodium falciparum [3] is reported as 1.

Turning to `COc1cc2c[n+](C)c3c4cc5c(cc4ccc3c2cc1OC)OCO5` [NITIDINE CHLORIDE], the IC50 in the data set with Plasmodium falciparum [5] and in the data set with Plasmodium falciparum [6] was 400 nM in each case.

Take `CCOc1cc2ccc3c4cc(OC)c(OC)cc4c[n+](C)c3c2cc1OC.CS(=O)(=O)[O-]`: the IC50 in the data set on Plasmodium falciparum [1] was determined as 740 nM; in the data set with Plasmodium falciparum [4], 800 nM. For the same molecule, the Ratio in the data set on Plasmodium falciparum [3] worked out at 0.9.
